From patent publication US9403823B2, “Protein kinase inhibitors” (ORIBASE PHARMA, priority 2012, dated 2016)
pEC50: −log10 of the molar value. Like-named read-outs stand apart in the source and are kept apart here.

Legend:
BRAF = target: T1, BRAF (Homo sapiens, UniProt P15056); test: In vitro kinase assay (Z'-LYTE), BRAF; assay type: biochemical; details: read-out: % of inhibition of the kinase compared to the control
T1 construct: purchased Invitrogen
In short: (§1)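 Peptide/kinase mix and ATP (at apparent Km) were combined in kinase buffer with compound at 100 nM, or 10 μM against ABL and its T315I mutant. Non-phosphorylated peptide was then proteolytically cleaved, and donor-to-acceptor emission ratio gave the extent of phosphorylation.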

EGFR (ErbB1) = target: T2, EGFR (ErbB1) (Homo sapiens, UniProt P00533); test: In vitro kinase assay (Z'-LYTE), EGFR (ErbB1); assay type: biochemical; details: read-out: % of inhibition of the kinase compared to the control
T2 construct: purchased Invitrogen
T2 sequence (P00533 25-1210): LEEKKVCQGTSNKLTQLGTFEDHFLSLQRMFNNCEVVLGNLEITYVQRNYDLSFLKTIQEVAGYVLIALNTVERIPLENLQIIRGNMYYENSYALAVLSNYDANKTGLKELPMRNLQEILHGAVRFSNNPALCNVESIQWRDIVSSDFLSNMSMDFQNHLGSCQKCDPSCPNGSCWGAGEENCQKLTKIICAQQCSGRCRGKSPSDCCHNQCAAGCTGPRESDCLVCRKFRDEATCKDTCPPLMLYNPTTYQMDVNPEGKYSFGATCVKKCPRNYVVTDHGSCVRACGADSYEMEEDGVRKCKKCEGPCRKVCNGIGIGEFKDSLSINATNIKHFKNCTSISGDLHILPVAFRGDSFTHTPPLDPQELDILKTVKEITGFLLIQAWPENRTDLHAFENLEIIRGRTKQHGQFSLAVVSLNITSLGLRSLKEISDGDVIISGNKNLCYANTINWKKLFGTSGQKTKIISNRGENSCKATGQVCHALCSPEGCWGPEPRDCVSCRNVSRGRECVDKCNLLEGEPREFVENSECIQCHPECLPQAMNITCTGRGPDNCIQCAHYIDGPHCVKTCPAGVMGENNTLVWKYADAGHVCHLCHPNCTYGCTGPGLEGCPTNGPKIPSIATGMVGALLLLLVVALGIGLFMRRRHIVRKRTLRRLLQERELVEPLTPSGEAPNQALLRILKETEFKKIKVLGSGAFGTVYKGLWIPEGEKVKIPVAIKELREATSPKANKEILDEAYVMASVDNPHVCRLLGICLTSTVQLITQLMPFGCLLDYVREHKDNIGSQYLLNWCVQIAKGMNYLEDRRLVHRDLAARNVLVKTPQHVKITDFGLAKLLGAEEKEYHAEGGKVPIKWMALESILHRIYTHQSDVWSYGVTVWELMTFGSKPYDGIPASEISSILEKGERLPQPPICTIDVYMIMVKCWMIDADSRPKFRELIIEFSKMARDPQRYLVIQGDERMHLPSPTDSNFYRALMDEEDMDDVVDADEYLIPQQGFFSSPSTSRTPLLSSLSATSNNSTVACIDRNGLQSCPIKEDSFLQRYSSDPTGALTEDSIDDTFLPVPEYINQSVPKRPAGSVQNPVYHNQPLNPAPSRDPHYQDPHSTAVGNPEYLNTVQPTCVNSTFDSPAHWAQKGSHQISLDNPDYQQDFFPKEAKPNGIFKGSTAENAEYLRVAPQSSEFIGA
In short: as §1

EGFR (ErbB1) T790M L858R = target: T3, EGFR (ErbB1) T790M L858R (Homo sapiens, UniProt P00533, L858R/T790M); test: In vitro kinase assay (Z'-LYTE), EGFR (ErbB1) T790M L858R; assay type: biochemical; details: read-out: % of inhibition of the kinase compared to the control
T3 construct: purchased Invitrogen
T3 sequence (P00533 25-1210 T790M/L858R): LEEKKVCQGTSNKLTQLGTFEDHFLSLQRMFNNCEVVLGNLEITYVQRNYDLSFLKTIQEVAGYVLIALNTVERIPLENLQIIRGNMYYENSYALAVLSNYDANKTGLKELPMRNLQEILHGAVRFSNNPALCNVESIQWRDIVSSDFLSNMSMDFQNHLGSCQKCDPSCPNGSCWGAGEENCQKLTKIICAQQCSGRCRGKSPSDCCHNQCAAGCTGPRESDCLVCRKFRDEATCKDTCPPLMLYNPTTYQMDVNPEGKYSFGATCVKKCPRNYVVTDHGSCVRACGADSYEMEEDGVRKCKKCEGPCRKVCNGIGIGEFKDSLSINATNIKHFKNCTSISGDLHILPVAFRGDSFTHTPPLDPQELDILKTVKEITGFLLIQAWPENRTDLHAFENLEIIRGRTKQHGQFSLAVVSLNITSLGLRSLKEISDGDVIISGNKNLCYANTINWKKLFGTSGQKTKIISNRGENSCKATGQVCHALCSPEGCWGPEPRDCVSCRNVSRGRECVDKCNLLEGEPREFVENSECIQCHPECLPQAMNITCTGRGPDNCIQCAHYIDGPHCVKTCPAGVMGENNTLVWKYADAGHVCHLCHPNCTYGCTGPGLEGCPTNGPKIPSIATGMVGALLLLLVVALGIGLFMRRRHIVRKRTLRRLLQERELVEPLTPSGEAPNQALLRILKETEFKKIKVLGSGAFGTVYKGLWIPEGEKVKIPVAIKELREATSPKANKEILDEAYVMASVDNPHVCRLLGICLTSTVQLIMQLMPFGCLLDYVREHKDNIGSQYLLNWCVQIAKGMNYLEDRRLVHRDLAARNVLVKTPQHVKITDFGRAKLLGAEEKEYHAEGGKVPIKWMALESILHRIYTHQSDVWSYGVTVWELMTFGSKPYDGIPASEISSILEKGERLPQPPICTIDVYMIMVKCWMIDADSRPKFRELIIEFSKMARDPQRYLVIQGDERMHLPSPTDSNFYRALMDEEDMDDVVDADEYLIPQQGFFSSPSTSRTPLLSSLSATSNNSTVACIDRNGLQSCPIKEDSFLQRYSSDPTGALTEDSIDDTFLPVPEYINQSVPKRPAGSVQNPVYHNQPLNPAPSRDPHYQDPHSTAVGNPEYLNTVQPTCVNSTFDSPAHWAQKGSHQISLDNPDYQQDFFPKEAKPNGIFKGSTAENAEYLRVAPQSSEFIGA
Experimental: 1) In Vitro Kinase Assays (Table 10 to Table 21)
The inhibitory activity of the compounds on several kinases including BRAF, EGFR (ErbB1), EGFR (ErbB1) T790M L858R, FGFR2, KDR (VEGFR2), PDGFRA (PDGFR alpha), SRC and other was evaluated by Invitrogen using the Z′-LYTE® technology. Briefly, the Z′-LYTE® biochemical assay employs a fluorescence-based, coupled-enzyme format and is based on the differential sensitivity of phosphorylated and non-phosphorylated peptides to proteolytic cleavage. The peptide substrate is labeled with two fluorophores—one at each end—that make up a FRET pair. A ratiometric method, which calculates the ratio (the Emission Ratio) of donor emission to acceptor emission after excitation of the donor fluorophore at 400 nm, is used to quantitate reaction progress.
The compounds are screened in 1% DMSO (final) in the well. For 10 point titrations, 3-fold serial dilutions are conducted from the starting concentration. All Peptide/Kinase Mixtures are diluted to a 2× working concentration in the appropriate Kinase Buffer. All ATP Solutions are diluted to a 4× working concentration in Kinase Buffer (50 mM HEPES pH 7.5, 0.01% BRIJ-35, 10 mM MgCl2, 1 mM EGTA). ATP Km apparent is previously determined using a Z′-LYTE® assay.
Each compound was incubated at a concentration of 100 nM (excepted to test the activity against ABL and ABL T315I for which the compounds were incubated at a concentration of 10 μM) and the tables 10 to 21 summarize the results obtained showing the inhibitory power of a compound.

FGFR2 = target: T4, FGFR2 (Homo sapiens, UniProt P21802); test: In vitro kinase assay (Z'-LYTE), FGFR2; assay type: biochemical; details: read-out: % of inhibition of the kinase compared to the control
T4 construct: purchased Invitrogen
T4 sequence (P21802 22-821): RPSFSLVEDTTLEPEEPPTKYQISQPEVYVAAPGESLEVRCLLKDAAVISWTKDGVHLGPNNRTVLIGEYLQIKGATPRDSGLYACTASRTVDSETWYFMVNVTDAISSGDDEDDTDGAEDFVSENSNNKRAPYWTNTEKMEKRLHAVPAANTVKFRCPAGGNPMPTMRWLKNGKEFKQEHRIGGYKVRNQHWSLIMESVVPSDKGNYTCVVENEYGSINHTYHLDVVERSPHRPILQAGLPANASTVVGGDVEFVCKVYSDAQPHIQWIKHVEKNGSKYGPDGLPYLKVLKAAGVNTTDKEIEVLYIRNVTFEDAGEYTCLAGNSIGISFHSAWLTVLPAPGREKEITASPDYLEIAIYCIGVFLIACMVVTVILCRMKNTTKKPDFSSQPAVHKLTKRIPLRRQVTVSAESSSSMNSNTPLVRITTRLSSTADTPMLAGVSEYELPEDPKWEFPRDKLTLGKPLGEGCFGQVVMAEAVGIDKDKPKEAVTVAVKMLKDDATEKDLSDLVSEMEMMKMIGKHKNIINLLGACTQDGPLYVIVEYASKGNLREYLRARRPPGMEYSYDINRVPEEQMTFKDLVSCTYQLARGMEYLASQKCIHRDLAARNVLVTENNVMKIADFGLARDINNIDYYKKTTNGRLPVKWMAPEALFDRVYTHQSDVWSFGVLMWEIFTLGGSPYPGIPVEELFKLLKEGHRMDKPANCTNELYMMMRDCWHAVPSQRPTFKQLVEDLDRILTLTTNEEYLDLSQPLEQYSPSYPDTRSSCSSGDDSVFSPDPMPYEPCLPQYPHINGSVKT
In short: as §1

KDR (VEGFR2) = target: T5, KDR (VEGFR2) (Homo sapiens, UniProt P35968); test: In vitro kinase assay (Z'-LYTE), KDR (VEGFR2); assay type: biochemical; details: read-out: % of inhibition of the kinase compared to the control
T5 construct: purchased Invitrogen
T5 sequence (P35968 20-1356): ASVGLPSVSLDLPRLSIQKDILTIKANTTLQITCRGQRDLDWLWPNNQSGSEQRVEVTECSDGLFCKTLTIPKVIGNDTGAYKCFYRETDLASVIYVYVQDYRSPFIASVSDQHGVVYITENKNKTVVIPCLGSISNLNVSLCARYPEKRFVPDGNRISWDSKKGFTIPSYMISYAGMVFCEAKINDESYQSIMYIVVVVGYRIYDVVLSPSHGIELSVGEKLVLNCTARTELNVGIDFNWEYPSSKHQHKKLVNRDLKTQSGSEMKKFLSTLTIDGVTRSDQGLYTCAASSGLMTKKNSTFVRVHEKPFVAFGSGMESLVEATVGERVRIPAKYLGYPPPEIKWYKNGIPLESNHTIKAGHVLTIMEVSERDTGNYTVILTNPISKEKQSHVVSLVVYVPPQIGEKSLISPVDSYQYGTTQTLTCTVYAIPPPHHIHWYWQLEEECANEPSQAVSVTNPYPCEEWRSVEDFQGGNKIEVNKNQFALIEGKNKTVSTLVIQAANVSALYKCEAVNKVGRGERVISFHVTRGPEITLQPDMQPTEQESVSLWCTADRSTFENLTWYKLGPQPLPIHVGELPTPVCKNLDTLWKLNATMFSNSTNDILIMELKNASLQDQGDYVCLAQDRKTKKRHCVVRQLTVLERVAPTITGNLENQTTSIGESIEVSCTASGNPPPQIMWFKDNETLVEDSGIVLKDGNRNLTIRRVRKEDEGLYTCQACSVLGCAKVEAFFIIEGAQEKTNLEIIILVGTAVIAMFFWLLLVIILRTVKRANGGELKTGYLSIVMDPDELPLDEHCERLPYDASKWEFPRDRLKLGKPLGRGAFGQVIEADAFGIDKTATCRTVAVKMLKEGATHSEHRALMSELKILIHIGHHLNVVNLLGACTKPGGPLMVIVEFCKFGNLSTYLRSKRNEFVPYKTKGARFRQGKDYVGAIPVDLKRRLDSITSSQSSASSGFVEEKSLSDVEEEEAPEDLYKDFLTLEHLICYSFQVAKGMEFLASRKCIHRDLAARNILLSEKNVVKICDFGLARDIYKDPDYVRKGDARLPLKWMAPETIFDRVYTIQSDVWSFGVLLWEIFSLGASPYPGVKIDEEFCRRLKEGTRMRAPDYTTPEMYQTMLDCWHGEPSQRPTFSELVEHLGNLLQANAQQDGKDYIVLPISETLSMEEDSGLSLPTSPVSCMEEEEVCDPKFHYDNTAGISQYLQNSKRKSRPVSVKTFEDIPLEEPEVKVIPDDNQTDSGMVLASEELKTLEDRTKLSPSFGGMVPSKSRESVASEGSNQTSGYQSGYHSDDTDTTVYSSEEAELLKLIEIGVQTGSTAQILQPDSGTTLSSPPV
In short: as §1

PDGFRA (PDGFR alpha) = target: T6, PDGFRA (PDGFR alpha) (Homo sapiens, UniProt P16234); test: In vitro kinase assay (Z'-LYTE), PDGFRA; assay type: biochemical; details: read-out: % of inhibition of the kinase compared to the control
T6 construct: purchased Invitrogen
In short: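 Compounds at a single dose (100 nM; 10 μM for both ABL forms) were run in a fluorescence coupled-enzyme kinase format relying on differential protease sensitivity of phospho versus non-phospho peptide. Reaction progress was measured ratiometrically from the FRET pair.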

SRC = target: T7, SRC (Homo sapiens, UniProt P12931); test: In vitro kinase assay (Z'-LYTE), SRC; assay type: biochemical; details: read-out: % of inhibition of the kinase compared to the control
T7 construct: purchased Invitrogen
T7 sequence (P12931 whole entry): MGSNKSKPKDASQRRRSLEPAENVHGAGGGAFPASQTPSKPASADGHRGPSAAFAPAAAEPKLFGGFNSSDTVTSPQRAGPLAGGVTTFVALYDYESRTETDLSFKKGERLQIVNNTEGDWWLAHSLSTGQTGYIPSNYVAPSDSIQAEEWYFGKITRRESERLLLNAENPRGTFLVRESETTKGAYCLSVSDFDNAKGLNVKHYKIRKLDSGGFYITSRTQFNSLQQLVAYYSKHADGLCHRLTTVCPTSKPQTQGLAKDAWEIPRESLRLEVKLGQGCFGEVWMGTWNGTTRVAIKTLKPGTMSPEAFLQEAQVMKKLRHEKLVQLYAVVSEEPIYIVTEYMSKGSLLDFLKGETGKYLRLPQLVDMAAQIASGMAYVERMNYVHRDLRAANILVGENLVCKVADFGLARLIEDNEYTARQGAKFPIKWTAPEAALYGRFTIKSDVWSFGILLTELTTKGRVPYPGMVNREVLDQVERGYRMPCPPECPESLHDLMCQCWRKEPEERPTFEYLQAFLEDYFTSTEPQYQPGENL
In short: as §1

A549 cell line = test: In vitro cell proliferation assay (MTT), A549; assay type: cell-based; details: Homo sapiens, read-out: EC50, anti-proliferative activity
Experimental: (§2) 2) In Vitro Cell Proliferation Assays (Table 22 to Table 35)
(§3) Cancer cell lines (5×10^3 cells per well) or HUVEC (1×10^4 cells per well) or HRMEC (1×10^4 cells per well) were distributed in 96-well plates and incubating in duplicate with escalating concentrations (10 nM to 3 μM) of compounds for 72 hr. Cell proliferation was measured using MTT (3[4,5-dimethylthiazol-2-yl]-2,5-diphenyltetrazolium bromide).

HepG2 cell line = test: In vitro cell proliferation assay (MTT), HepG2; assay type: cell-based; details: Homo sapiens, read-out: EC50, anti-proliferative activity
In short: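 Seed cells (HRMEC 1×10^4/well; cancer lines 5×10^3/well), add compounds at escalating concentrations from 10 nM to 3 μM in duplicate, incubate 72 hr, then measure proliferation with MTT.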

HuCCT1 cell line = test: In vitro cell proliferation assay (MTT), HuCCT1; assay type: cell-based; details: Homo sapiens, read-out: EC50, anti-proliferative activity
Experimental: as §2, §3

HuH6 Clone 5 cell line = test: In vitro cell proliferation assay (MTT), HuH6 Clone 5; assay type: cell-based; details: read-out: EC50, anti-proliferative activity
Experimental: as §2, §3

HuH7 cell line = test: In vitro cell proliferation assay (MTT), HuH7; assay type: cell-based; details: Homo sapiens, read-out: EC50, anti-proliferative activity
Experimental: as §2, §3

HT29 cell line = test: In vitro cell proliferation assay (MTT), HT29; assay type: cell-based; details: Homo sapiens, read-out: EC50, anti-proliferative activity
Experimental: as §2, §3

BxPC-3 cell line = test: In vitro cell proliferation assay (MTT), BxPC-3; assay type: cell-based; details: Homo sapiens, BXPC-3, 72 h; read-out: EC50, anti-proliferative activity
Experimental: as §2, §3

H1975 cell line = test: In vitro cell proliferation assay (MTT), H1975; assay type: cell-based; details: Homo sapiens, read-out: EC50, anti-proliferative activity
Experimental: as §2, §3

HUVEC = test: In vitro cell proliferation assay (MTT), HUVEC; assay type: cell-based; details: Homo sapiens, read-out: EC50, anti-proliferative activity
In short: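 HUVEC cells were plated at 1×10^4 cells per well in 96-well plates and exposed in duplicate to increasing compound concentrations from 10 nM to 3 μM for 72 hr. Proliferation was then quantified with MTT (3[4,5-dimethylthiazol-2-yl]-2,5-diphenyltetrazolium bromide) to determine anti-proliferative activity.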

MDA-MB-231 cell line = test: In vitro cell proliferation assay (MTT), MDA-MB-231; assay type: cell-based; details: Homo sapiens, MDA-MB-231, 72 h; read-out: EC50, anti-proliferative activity
Experimental: as §2, §3

HeLa cell line = test: In vitro cell proliferation assay (MTT), HeLa; assay type: cell-based; details: Homo sapiens, 72 h, read-out: EC50, anti-proliferative activity
Experimental: as §2, §3

HRMEC cells = test: In vitro cell proliferation assay (MTT), HRMEC; assay type: cell-based; details: 72 h, read-out: EC50, anti-proliferative activity
Experimental: as §2, §3

Row | inhibition at 0.1 µM (BRAF) | inhibition at 0.1 µM (EGFR (ErbB1)) | inhibition at 0.1 µM (EGFR (ErbB1) T790M L858R) | inhibition at 0.1 µM (FGFR2) | inhibition at 0.1 µM (KDR (VEGFR2)) | inhibition at 0.1 µM (PDGFRA (PDGFR alpha)) | inhibition at 0.1 µM (SRC) | pEC50 (A549 cell line; A549, 72 h) | pEC50 (HepG2 cell line; HepG2, 72 h) | pEC50 (HuH6 Clone 5 cell line; HUH-6-clone5, 72 h) | pEC50 (HuH7 cell line; Huh-7, 72 h) | pEC50 (HT29 cell line; HT-29, 72 h) | pEC50 (H1975 cell line; NCI-H1975, 72 h) | Structure (SMILES) | pEC50 (HuCCT1 cell line; HuCCT-1, 72 h) | pEC50 (HUVEC; 72 h) | pEC50 (HRMEC cells) | further results
1 | ≥ 50% | ≥ 50% | ≥ 50% | ≥ 50% | ≥ 50% | ≥ 50% | ≥ 50% | 6.00 to 7.00 | 6.00 to 7.00 | 6.00 to 7.00 | 6.00 to 7.00 | 6.00 to 7.00 | 6.00 to 7.00 | CC(=O)c1cc2cc(NCc3cc(NC(=O)c4ccc(CN5CCC(N(C)C)C5)c(C(F)(F)F)c4)ccc3C)cnc2[nH]1 (centres unmarked) [OR0718, N-{3-[(2-Acetyl-1H-pyrrolo[2,3-b]pyridin-5-ylamino)-methyl]-4-methyl-phenyl}-4-(3-dimethylamino-pyrrolidin-1-ylmethyl)-3-trifluoromethyl-benzamide] | 6.00 to 7.00 | ≥ 7.00 | 6.00 to 7.00 | pEC50 (BxPC-3 cell line): ≥ 7.00; pEC50 (MDA-MB-231 cell line): ≥ 7.00; pEC50 (HeLa cell line): 6.00 to 7.00
2 | < 50% | ≥ 50% | < 50% | ≥ 50% | ≥ 50% | ≥ 50% | ≥ 50% | – | – | – | – | – | – | CC(=O)c1cc2cc(NC(=O)c3cc(NC(=O)c4ccc(CN5CCC(N(C)C)C5)c(C(F)(F)F)c4)ccc3C)cnc2[nH]1 (centres unmarked) [OR0782, N-(2-Acetyl-1H-pyrrolo[2,3-b]pyridin-5-yl)-2-methyl-5-[4-(3-dimethylamino-pyrrolidin-1-ylmethyl)-3-trifluoromethyl-benzoylamino]-benzamide] | – | – | – | pEC50 (A549 cell line; A549, 72 hr, MTT): ≤ 6.00; pEC50 (HepG2 cell line; HepG2, 72 hr, MTT): ≤ 6.00; pEC50 (HuCCT1 cell line; HuCCT-1, HuCCT1, 72 hr, MTT): ≤ 6.00; pEC50 (HuH6 Clone 5 cell line; HUH-6-clone5, HuH6 Clone 5, 72 hr, MTT): ≤ 6.00; pEC50 (HuH7 cell line; Huh-7, HuH7, 72 hr, MTT): ≤ 6.00; pEC50 (HT29 cell line; HT-29, HT29, 72 hr, MTT): ≤ 6.00; pEC50 (H1975 cell line; NCI-H1975, H1975, 72 hr, MTT): ≤ 6.00; pEC50 (HUVEC; 72 hr, MTT): ≤ 6.00
3 | ≥ 50% | ≥ 50% | ≥ 50% | ≥ 50% | ≥ 50% | ≥ 50% | ≥ 50% | 6.00 to 7.00 | 6.00 to 7.00 | 6.00 to 7.00 | 6.00 to 7.00 | 6.00 to 7.00 | 6.00 to 7.00 | CNC(=O)c1cc2cc(NCc3cc(NC(=O)c4ccc(CN5CCC(N(C)C)C5)c(C(F)(F)F)c4)ccc3C)cnc2[nH]1 (centres unmarked) [OR0752, 5-{5-[4-(3-Dimethylamino-pyrrolidin-1-ylmethyl)-3-trifluoromethyl-benzoylamino]-2-methyl-benzylamino}-1H-pyrrolo[2,3-b]pyridine-2-carboxylic acid methylamide] | 6.00 to 7.00 | ≥ 7.00 | ≥ 7.00 | –
